Converted amounts (≈) assume the structure as drawn. Like-named read-outs stand apart in the source and are kept apart here.
Key:
[1] = tested on: methicillin-resistant Staphylococcus aureus (MRSA) strains; test: Antibiotic assay (resazurin, Example 1), MRSA strains; format: cell-based
Source text: (§1) Bacteria Strain. […] The MRSA were obtained as further described below.
(§2) Antibiotic agents. Cyprofloxacin and erythromycin were provided by Sigma-Aldrich. Gentamicin sulfate and vancomycin hydrochloride were provided by Calbiochem.
Isolation and identification of methicillin-resistant Staphylococcus aureus (MRSA) strains. From March 2007 to March 2008, 35 screening swabs from nares (n=31), throat (n=3), Groin pus (n=1) were obtained from patients hospitalized at Chicoutimi hospital. Identification of S. aureus was performed using the Slidex Staph-Kit (bioMerieux Vitek, Inc., Hazelwood, Mo.) according to the manufacturer's instructions. Quality control was performed with MRSA strain ATCC 43300 and S. aureus strain ATCC 25923. In addition, S. aureus profile was determined with API Staph test strip with bacterial suspension of saline McFarland of 0.5 (bioMerieux, Durham, N.C.) according to the manufacturer's protocol. API Staph strips were held for 24 h before the results were read. A latex agglutination (SLIDEX) test detecting methicilin resistance in Staphylococci based on the production of low-affinity PBP2a, which is encoded by the mecA gene was performed on all strains. An antibiogram was also performed to confirm the identification of MRSA strains using disk diffusion test.
Antibiotic susceptibility testing using disk diffusion method. The antimicrobial activity of different classes of antibiotics of the potential MRSA was determined by diffusion method (Kirby-Bauer) as described by NCCLS. The antibiotics tested included: penicillin (10 units), amoxicillin/clavulanic acid (20/10 μg), ciprofloxacin (5 μg), moxifloxacin (5 μg), levofloxacin (5 μg), clindamycin (15 μg), erythromycin (15 μg), cefoxitin (30 μg), linezolid (30 μg), trimethoprim/sulfomethoxazole (1.25/23.75 μg), rifampicin (5 μg), gentamicin (10 μg) and vancomycin (30 μg). The agar medium had pH 7.2 to 7.4 before inoculing potentiel MRSA. The antibiotics were maintained at 8° C. or lower −14° C. according to manufacturer's recommendations. The pure culture was inoculated on a non-selective plate for 18-24 h. Each colony was collected with a wire loop and transfered the growth to a tube containing 4 to 5 mL of a tryptic-soy broth. The inoculum density was standarized with BaSO4 using 0.5 McFarland standard. All strains were incubated at 37° C. until it achieves or exceeds the turbidity of 0.5 McFarland standard. Inoculation of the dried surface (Muller-Hinton agar plate) by streaking the swab over the entire sterile agar surface. This procedure was repeated two more times. After 15 min, the appropriate disk were applied on the surface with a sterile forceps. The inverted plates was placed in a incubator at 37° C./air/16 to 18 h or 24 h for vancomycin. The inhibition zones were measured with a millimetric ruler. Interpretation of zone sizes by references of the manufacturer. Quality control organisms used were ATCC strains number 25923.
(§3) MRSA. Ten (10) strains of MRSA obtained as described above were tested along with an S. aureus wild type (WT) strain (ATCC25923).

S. epidermidis = test: Antibiotic assay (resazurin, Example 1), S. epidermidis strains; settings: Staphylococcus epidermidis
Protocol: The antibiotic assays were performed in 96-well plates (BD Falcon). The bacteria strains were inoculated in Nutrient Broth (BD) for the gram negative bacteria and Tryptic soy broth (BD) with 10% of defibrinated sheep blood (PML microbiological) for gram positive strain. All bacteria strains were dosed by spectrophotometry at 660 nm where 1 D.O=2×10^8 bacteria/mL. All bacteria were plated in their respective broth at a concentration of 450 000 bacteria/mL.
Compounds I, II and III were diluted in methanol and the above-noted antibiotic agents were diluted in water. The solvent concentration was 0.25%, which was not toxic for the bacteria. Compounds I, II and III and the above-noted antibiotic agents were tested at 8 different concentrations.
Each well contained: 100 μL of bacteria, 50 μL of the compounds tested (compound I, II, III or the above-noted antibiotic agent) and 50 μL of a 4% resazurin (Sigma) solution. The plates were incubated at 37° C. for 5 h. The fluorescence was read using a Fluoroskan Ascent™ FL (thermo) using an excitation wavelength of 530 nm and an emission wavelength of 590 nm.
Two different strains of Staphylococcus were tested, namely the S. epidermidis and the S. aureus strains.

S. aureus = test: Antibiotic assay (resazurin, Example 1), S. aureus strains of Table 3; format: cell-based, Staphylococcus aureus; settings: for IC50: read-out: IC50; for MIC: read-out: Minimum Inhibitory Concentration (MIC)
Source text: as §1, §2

Streptococcus agalactiae = test: Antibiotic assay (resazurin, Example 1), Streptococcus agalactiae; format: cell-based; settings: for IC50: read-out: IC50
Protocol: as §1, §2
(§4) Five additional strains were tested: Streptococcus pneumoniae, Streptococcus agalactiae, Streptococcus pyogenes, Enterococcus faecalis and Corynebacterium jeikeium.

[2] = tested on: S. aureus wild type strain (ATCC 25923); test: Antibiotic assay (resazurin, Example 1), S. aureus wild type; format: cell-based, Staphylococcus aureus; settings: Staphylococcus aureus, ATCC25923, S. aureus WT ATCC 25923
Protocol: as §1, §2, §3

Streptococcus pyogenes = test: Antibiotic assay (resazurin, Example 1), Streptococcus pyogenes; format: cell-based; settings: Streptococcus pyogenes; for IC50: read-out: IC50; for MIC: read-out: Minimum Inhibitory Concentration (MIC)
Protocol: as §1, §2, §4

Enterococcus faecalis = test: Antibiotic assay (resazurin, Example 1), Enterococcus faecalis; format: cell-based; settings: for IC50: read-out: IC50
Protocol: as §1, §2, §4

[3] = Staphylococcus aureus, S. aureus 14094

O=C(O)c1cn(C2CC2)c2cc(N3CCNCC3)c(F)cc2c1=O [Ciprofloxacin, reference compound] was tested, and the “Minimum Inhibitory Concentration (MIC)” value ([1]; MRSA 1) was “(>186) μM”, the “Minimum Inhibitory Concentration (MIC)” value ([1]; MRSA 3) was “(>186) μM” and the “Minimum Inhibitory Concentration (MIC)” value ([1]; MRSA 4) was “(>186) μM”. For the same compound, the “Minimum Inhibitory Concentration (MIC)” value ([1]; MRSA 5) was “(>186) μM”, the “Minimum Inhibitory Concentration (MIC)” value ([1]; MRSA 6) was “(>186) μM” and the “Minimum Inhibitory Concentration (MIC)” value ([1]; MRSA 7) was “(>186) μM”. The “Minimum Inhibitory Concentration (MIC)” value ([1]; MRSA 8) was “(>186) μM”, the “Minimum Inhibitory Concentration (MIC)” value ([1]; MRSA 9) was “(>186) μM” and the “Minimum Inhibitory Concentration (MIC)” value ([1]; MRSA 10) was “(>186) μM”. For the same compound, the IC50 ([1]; Staphylococcus aureus, MRSA, MRSA1, read-out: IC50) was 102 ± 6 µM, the IC50 ([1]; Staphylococcus aureus, MRSA, MRSA2, read-out: IC50) was 156 ± 11 µM and the MIC ([1]; Staphylococcus aureus, MRSA, MRSA2, read-out: Minimum Inhibitory Concentration (MIC)) was > 186 µM. For the same compound, the IC50 ([1]; Staphylococcus aureus, MRSA, MRSA3, read-out: IC50) was > 186 µM, the IC50 ([1]; Staphylococcus aureus, MRSA, MRSA4, read-out: IC50) was 134 ± 7 µM and the IC50 ([1]; Staphylococcus aureus, MRSA, MRSA5, read-out: IC50) was 109 ± 4 µM. The IC50 ([1]; Staphylococcus aureus, MRSA, MRSA6, read-out: IC50) was 131 ± 9 µM, the IC50 ([1]; Staphylococcus aureus, MRSA, MRSA7, read-out: IC50) was 128 ± 9 µM and the IC50 ([1]; Staphylococcus aureus, MRSA, MRSA8, read-out: IC50) was 119 ± 9 µM. The IC50 ([1]; Staphylococcus aureus, MRSA, MRSA9, read-out: IC50) was 106 ± 11 µM, the IC50 ([1]; Staphylococcus aureus, MRSA, MRSA10, read-out: IC50) was 122 ± 16 µM and the IC50 ([1]; Staphylococcus aureus, MRSA, all MRSA strains, read-out: IC50 values against the MRSA strains) was 100 to 150 µM. For the same compound, the IC50 (S. epidermidis; S. epidermidis 14069) was 31 ± 2 µM, the IC50 (S. epidermidis; S. epidermidis 14085) was 26.3 ± 0.8 µM and the IC50 (S. epidermidis; S. epidermidis 14093) was < 1.56 µM. For the same compound, the IC50 (S. epidermidis; S. epidermidis 14134) was 44 ± 1 µM, the IC50 (S. epidermidis; S. epidermidis 14143) was 80 ± 7 µM and the MIC (S. epidermidis; read-out: Minimum Inhibitory Concentration (MIC), S. epidermidis 14069) was > 200 µM. For the same compound, the MIC (S. epidermidis; read-out: Minimum Inhibitory Concentration (MIC), S. epidermidis 14085) was > 200 µM, the MIC (S. epidermidis; read-out: Minimum Inhibitory Concentration (MIC), S. epidermidis 14093) was 77.1 µM (≈ 25.5 µg/mL) and the MIC (S. epidermidis; read-out: Minimum Inhibitory Concentration (MIC), S. epidermidis 14134) was > 200 µM. The MIC (S. epidermidis; read-out: Minimum Inhibitory Concentration (MIC), S. epidermidis 14143) was > 200 µM, the IC50 (S. aureus; S. aureus 14108) was < 1.56 µM and the IC50 (S. aureus; S. aureus 14118) was < 1.56 µM. The IC50 (S. aureus; S. aureus 14154) was < 1.56 µM, the IC50 (S. aureus; [3]) was < 1.56 µM and the MIC (S. aureus; [3]) was 87.6 µM (≈ 29 µg/mL). For the same compound, the MIC (S. aureus; Staphylococcus aureus, S. aureus 14108) was 66.8 µM (≈ 22.1 µg/mL), the MIC (S. aureus; Staphylococcus aureus, S. aureus 14118) was 65.1 µM (≈ 21.6 µg/mL) and the MIC (S. aureus; Staphylococcus aureus, S. aureus 14154) was 25.1 µM (≈ 8.32 µg/mL). For the same compound, the “Minimum Inhibitory Concentration (MIC)” value (Streptococcus agalactiae; Strep. agalactiae 14151) was “(>200) μM”, the “Minimum Inhibitory Concentration (MIC)” value (Streptococcus agalactiae; Strep. agalactiae 14153) was “(>200) μM” and the IC50 (Streptococcus agalactiae; Streptococcus agalactiae, Strep. agalactiae 14150) was 138 ± 10 µM. The MIC (Streptococcus agalactiae; Streptococcus agalactiae, Strep. agalactiae 14150, read-out: Minimum Inhibitory Concentration (MIC)) was > 200 µM, the IC50 (Streptococcus agalactiae; Streptococcus agalactiae, Strep. agalactiae 14151) was > 200 µM and the IC50 (Streptococcus agalactiae; Streptococcus agalactiae, Strep. agalactiae 14153) was 190 ± 10 µM. It also gave an IC50 ([2]; read-out: IC50) of 0.4 ± 0.2 µM, an MIC ([2]; read-out: Minimum Inhibitory Concentration (MIC)) of 47.9 µM (≈ 15.9 µg/mL) and an IC50 (Streptococcus pyogenes; Strep. pyogenes 14149) of 43 ± 2 µM. The MIC (Streptococcus pyogenes; Strep. pyogenes 14149) was 169 µM (≈ 56 µg/mL), the IC50 (Streptococcus pyogenes; Strep. pyogenes 14152) was 0.6 ± 1 µM and the MIC (Streptococcus pyogenes; Strep. pyogenes 14152) was 37.4 µM (≈ 12.4 µg/mL). The “Minimum Inhibitory Concentration (MIC)” value (Enterococcus faecalis; Ent. Faecalis 14115) was “(>200) μM”, the IC50 (Enterococcus faecalis; Enterococcus faecalis, Ent. Faecalis 14078) was 15 ± 2 µM and the MIC (Enterococcus faecalis; Enterococcus faecalis, Ent. Faecalis 14078, read-out: Minimum Inhibitory Concentration (MIC)) was > 200 µM. For the same compound, the IC50 (Enterococcus faecalis; Enterococcus faecalis, Ent. Faecalis 14115) was > 200 µM and the “activity against Enterococcus faecalis 14115 strain” value (Enterococcus faecalis; in words) was “not active”.

Source: US9499509B2, “Dihydrochalcone derivatives and their use as antibiotic agents” (UNIVERSITÉ DU QUÉBEC À CHICOUTIMI, priority 2012, dated 2016)
